Laboratory results published in patent US4749782A, “Vasopressin compounds” (Smithkline Beckman Corporation, priority 1986, dated 1988).

target: T1, V2 -vasopressin receptors (Rattus norvegicus, UniProt Q00788); test: in vivo diuretic activity in the hydropenic rat; conditions: measure of V2 antagonism
T1 construct: from tissue; host or cells: whole animal (hydropenic rat)
Protocol: Antagonistic activity at the V2 -vasopressin receptors is determined in a protocol which determines in vivo diuretic activity in the hydropenic rat (ED300 μg/kg). This procedure is described in the literature: F. Stassen et al., 1st International Conference on Diuretics, Miami, FL., March (1984).

T1 sequence (Q00788 whole entry): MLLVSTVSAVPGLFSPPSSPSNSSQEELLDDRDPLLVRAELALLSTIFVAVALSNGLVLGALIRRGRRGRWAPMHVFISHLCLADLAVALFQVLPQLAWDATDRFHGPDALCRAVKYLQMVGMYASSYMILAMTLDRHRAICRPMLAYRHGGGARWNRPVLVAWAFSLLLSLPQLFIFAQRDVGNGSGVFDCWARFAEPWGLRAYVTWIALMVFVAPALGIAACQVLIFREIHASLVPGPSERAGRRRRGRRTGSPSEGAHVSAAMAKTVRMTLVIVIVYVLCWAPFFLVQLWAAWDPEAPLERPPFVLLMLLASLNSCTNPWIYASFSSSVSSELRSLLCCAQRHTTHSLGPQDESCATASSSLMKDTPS

Substance | ED300 [mg/kg]
[1-(β,β-diethyl β-mercaptopropionic acid)-2-(O-ethyl-D-tyrosine)-4-valine-8-arginine-9-desglycine]-vasopressin [Compound B] | 0.0119
[1-(β,β-diethyl-β-mercaptopropionic acid)-2-(O-ethyl-L-tyrosine)-4-valine-8-arginine] vasopressin [Compound C] | 0.1205
[1-(β,β-dimethyl-β-mercaptopropionic acid)-2-(O-ethyl-D-tyrosine)-4-valine-8-arginine]vasopressin [Compound D, reference compound] | 4.95
